The values below come from patent US20120191039A1, “CARRIER LINKED PRAMIPEXOLE PRODRUGS” (ASCENDIS PHARMA A/S, priority 2009, published 2012).

Series [1] can be described thus: Release kinetics in vitro: hydrolysis in buffer at pH 7.4 and 37° C. The conditions noted are these: sodium phosphate buffer; half time of release, 60 mM sodium phosphate, 3 mM EDTA, 0.01% Tween20, pH 7.4, 37° C.; read-out: t1/2 buffer A (pH 7.4) (converted). Format: physicochemical. How it is done:
In vitro release sample was vortexed and centrifuged. An aliquot was taken from the supernatant, diluted with eluent (20 mM phosphate buffer pH 7.4, 150 mM NaCl) and assayed for pramipexole content by SEC as described above.
Release of drug molecule was effected by hydrolysis in buffer at pH 7.4 and 37° C.
9a, 9b, 9c, 9d, 9e, 11b, 20, 21, 22b, 23, 24b, 33, and 35 respectively, were dissolved in buffer (60 mM sodium phosphate, 3 mM EDTA, 0.01% Tween20, pH 7.4), solution was filtered through a 0.2 μm filter and incubated at 37° C. Samples were taken at time intervals and analyzed by RP-HPLC at 263 nm and 280 nm and ESI-MS. UV-signals correlating to linker conjugate molecules were integrated and plotted against incubation time. Curve-fitting software was applied to estimate the corresponding half time of release
16a, 16b, 26, 30, and 31 respectively, were suspended in buffer (60 mM sodium phosphate, 3 mM EDTA, 0.01% Tween20, pH 7.4) and incubated at 37° C. At time intervals samples were vortexed and centrifuged. Aliquots (10-50 μL) were taken from the supernatant solution, and analyzed by measurement of the absorption of released drug at 263 nm. Calculated amounts of released drug were plotted against incubation time. Alternatively, amount of released pramipexole was determined by size exclusion chromatography as described in “Materials and Methods”.
Curve-fitting software was applied to estimate the corresponding half time of release.

The conditions of series [2]: cited from earlier work.

Where two headings read alike, the source gives them in different places.

Consider `CCCN[C@H]1CCc2nc(NC(=O)COCC(=O)NCCCCCCSC3CC(=O)N(CCC(=O)NCCOCCOCCOCCOCCOCCOCCC(=O)NCC(N)=O)C3=O)sc2C1` (some centres unmarked) [Compound 9c], for which, in series [1], the half-life is 31.2 h.
In the case of `CCCN[C@H]1CCc2nc(NC(=O)CCC(=O)NCCSC3CC(=O)N(CCC(=O)NCCOCCOCCOCCOCCOCCOCCC(=O)NCC(N)=O)C3=O)sc2C1` (some centres unmarked) [Compound 9a], the half-life in series [1] was 28.8 h.
Still for that read-out and setting: the value for `CCCN[C@H]1CCc2nc(NC(=O)CNC(=O)NCCCCCCSC3CC(=O)N(CCC(=O)NCCOCCOCCOCCOCCOCCOCCC(=O)NCC(N)=O)C3=O)sc2C1` (some centres unmarked) [Compound 9e] was 103 h; that for `CCCN[C@H]1CCc2nc(NC(=O)CNCC(=O)NCCCCCCSC3CC(=O)N(CCC(=O)NCCOCCOCCOCCOCCOCCOCCC(=O)NCC(N)=O)C3=O)sc2C1` (some centres unmarked) [Compound 9d] was 26.4 h.
In the case of `CCCN[C@H]1CCc2nc(N)sc2C1` [Pramipexole], in series [2] (healthy subjects), the elimination half life was 8 h. In series [2] (in vivo), the excretion entry is reported as “mainly renal”, the metabolism entry is reported as “negligible metabolism”, the protein bound result is listed as “Fifteen” and the volume of distribution was 7 L/kg. Besides, the absorption result in series [2] (oral administration) is “rapidly and completely absorbed”. The “time to maximum plasma concentration” value in series [2] (oral, empty stomach) was 1 to 2 h. In addition, the “time to maximum plasma concentration” value in series [2] (oral, with food) was 3 to 4 h. The Oral bioavailability entry in series [2] (oral) was “over 90%”.
For `CCCN[C@H]1CCc2nc(NC(=O)CCC(=O)NCCCCCCSC3CC(=O)N(CCC(=O)NCCOCCOCCOCCOCCOCCOCCC(=O)NCC(N)=O)C3=O)sc2C1` (some centres unmarked) [Compound 9b], in series [1], the half-life was 88.8 h.
